Laboratory results from patent publication US20130096021A1, “RECURRENT GENE FUSIONS IN BREAST CANCER” (priority 2011, published 2013).

Legend:
[1] = tested on: HCC1599 xenograft
[2] = tested on: Notch signaling pathway; assay: Notch reporter luciferase assay after DAPT treatment; type: cell-based, human; details: lysates 24 hours after DAPT
Protocol: Breast cancer cells were seeded into 24-well dishes in triplicate and allowed to attach overnight. Cells were then infected with a Notch-reporter construct Lenti-RBPJ-firefly luciferase together with a Lenti-CMV-Renilla luciferase control (SABiosciences/QIAGEN). The two lentiviral stocks were mixed at a ratio of 50 Notch reporters to 1 CMV control and a single mixture was used to infect all recipient cell lines at a MOI of 100. Following incubation for 48 hours, cell lysates were prepared and measured for Notch activity using Promega Dual Luciferase reagents and Passive Lysis Buffer. Firefly luciferase levels were normalized using corresponding Renilla luciferase levels for each cell line. To confirm that Notch pathways are activated in the index cell lines through Notch gene rearrangements, the activated NOTCH1 and NOTCH2 alleles were cloned from HCC1599, HCC2218, and HCC1187 into a pcDNA3.1 vector. These expression constructs, pcDNA3.1-1599-NOTCH1, pcDNA3.1-2218-NOTCH1, and pcDNA3.1-1187-NOTCH2 and positive control NOTCH1-NICD, were individually transfected into 293T cells along with the pGL4-RBPJ-4X reporter plasmid and pTKRenilla luciferase control plasmid. Cells were harvested for luciferase activity assays 24 hours after transfection and assayed as above.
Notch fusion alleles provide a target for therapeutic intervention. The three characterized Notch fusions represent two functional classes. The first class, exemplified by the HCC2218 and HCC1599 fusions, produces a protein similar to that produced by the ADAM17/TACE catalyzed S2 cleavage, which occurs during ligand activation of the Notch pathway. The second class, exemplified by the HCC1187 fusion, produces a protein similar to the NICD produced after cleavage at S3 by γ-secretase. […] Each of the three cell lines was treated with the γ-secretase inhibitor DAPT 31, and luciferase activity was measured in cell lysates 24 hours later. […] A panel of six breast cell lines were treated with DAPT at 0, 0.3, 1, and 3 μM, and cell proliferation was measured using a WST-1 assay over a six day time course.

[3] = tested on: HCC2218 cells; assay: WST-1 cell proliferation assay with DAPT; type: cell-based, human; details: DAPT 0.3, 1, and 3 μM, six day time course
Protocol: (§1) For cell proliferation assays, cells were seeded into 96-well plates in triplicate and allowed to attach overnight before drug treatment. The γ-secretase inhibitor DAPT (EMD Biosciences) was added to the cultures the next day at concentrations of 0, 0.3, 1, and 3 μM. Relative cell numbers were measured by WST-1 assays at indicated time points following the manufacturer's instructions (Roche).
(§2) Notch fusion alleles provide a target for therapeutic intervention. The three characterized Notch fusions represent two functional classes. The first class, exemplified by the HCC2218 and HCC1599 fusions, produces a protein similar to that produced by the ADAM17/TACE catalyzed S2 cleavage, which occurs during ligand activation of the Notch pathway. The second class, exemplified by the HCC1187 fusion, produces a protein similar to the NICD produced after cleavage at S3 by γ-secretase. The first class requires cleavage at S3 site by γ-secretase to release NICD, and thus would be expected to be sensitive to γ-secretase inhibitors (GSIs). The second class would be unaffected by GSIs, as the fusion generates an ORF similar to NICD. To test this, stable Notch reporter cell lines were established from each of the three Notch fusion positive carcinoma lines by infection with a lentivirus carrying the Notch responsive promoter driving firefly luciferase. Each of the three cell lines was treated with the γ-secretase inhibitor DAPT 31, and luciferase activity was measured in cell lysates 24 hours later. […] A panel of six breast cell lines were treated with DAPT at 0, 0.3, 1, and 3 μM, and cell proliferation was measured using a WST-1 assay over a six day time course.

[4] = tested on: other breast cell lines not expressing Notch fusion alleles; assay: WST-1 cell proliferation assay with DAPT; type: cell-based, human; details: DAPT 0.3, 1, and 3 μM, six day time course
Protocol: as §1, §2

[5] = tested on: HCC1187 cells; assay: WST-1 cell proliferation assay with DAPT; type: cell-based, human; details: DAPT 0.3, 1, and 3 μM, six day time course
Protocol: as §1, §2

[6] = tested on: HCC1599 cells; assay: WST-1 cell proliferation assay with DAPT; type: cell-based, human; details: DAPT 0.3, 1, and 3 μM, six day time course
Protocol: as §1, §2

[7] = tested on: Notch target genes CCND1, MYC, and HEY1; assay: Expression of Notch target genes after DAPT treatment; type: cell-based, human; details: 24-hour time course, cell lines with γ-secretase dependent Notch fusions
[8] = tested on: γ-secretase-cleaved NOTCH1 (NICD); assay: Western blot of NICD levels after DAPT treatment; type: cell-based, human
Protocol: For MAST2 fusion protein detection, cell pellets were sonicated in NP40 lysis buffer (50 mM Tris-HCl, 1% NP40, pH 7.4, Sigma), complete protease inhibitor mixture (Roche) and phosphatase inhibitor (EMD bioscience) Immunoblot analysis for MAST2 was carried out using MAST2 antibody from Novus Biologicals. Human β-actin antibody (Sigma) was used as a loading control. For NOTCH1 protein detection, cells were lysed in RIPA buffer containing protease inhibitor cocktail (Pierce). Proteins were separated by SDS-PAGE, transferred to nitrocellulose membranes and probed with antibodies recognizing total NOTCH1 (Cell Signaling), γ-secretase-cleaved NOTCH1 (NICD, Cell Signaling), or beta-actin (Santa Cruz). The signal was detected by chemiluminescence using Immun-Star Western C reagents (Bio-Rad).
Notch fusion alleles provide a target for therapeutic intervention. The three characterized Notch fusions represent two functional classes. […] Each of the three cell lines was treated with the γ-secretase inhibitor DAPT 31, and luciferase activity was measured in cell lysates 24 hours later. […] A panel of six breast cell lines were treated with DAPT at 0, 0.3, 1, and 3 μM, and cell proliferation was measured using a WST-1 assay over a six day time course.

C[C@H](NC(=O)Cc1cc(F)cc(F)c1)C(=O)N[C@H](C(=O)OC(C)(C)C)c1ccccc1 [DAPT, N—[N-(3,5-difluorophenacetyl)-L-alanyl]-S-phenylglycine t-butyl ester]
tumor volume ([1]; HCC1599 xenograft in immunodeficient mice, DAPT IP, versus untreated controls): significantly reduced
overall body weight ([1]; mouse, in vivo): No effect
Notch reporter activity (luciferase) ([2]; HCC1187 stable Notch reporter line): only slightly diminished
Notch reporter activity (luciferase) ([2]; HCC1599 stable Notch reporter line): dramatic reduction
Notch reporter activity (luciferase) ([2]; HCC2218 stable Notch reporter line): dramatic reduction
cell proliferation [3]: significant reduction in proliferation
cell proliferation [4]: no reduction in proliferation
cell proliferation [5]: no reduction in proliferation
cell proliferation [6]: dramatic reduction in proliferation
Notch target gene expression [7]: repressed
NICD levels (Western blot) ([8]; HCC1599 cells after DAPT treatment): nearly complete elimination
NICD levels (Western blot) ([8]; HCC2218 cells after DAPT treatment): dramatically reduced
